# From patent US20080161219A1, “CLATHRATES OF AN ORGANOSILANE QUATERNARY AMMONIUM COMPOUND AND UREA AND METHODS OF USE” (priority 2007, published 2008)
# Experiments:
# [1] = Dissolving clathrate in deionized water (appearance of mixture); format: physicochemical; details: 6.4 gms clathrate in 800 ml deionized water (pH=3), shaken; 0.2% quat, 0.6% urea
# [2] = Solubility / stability against decomposition in chloroform; format: physicochemical
# Method: The following experiments were conducted to determine if the clathrate compositions of this invention would be decomposed by chloroform (a strong solvent).
# 7.51 grams of urea were slurried in a beaker with 75.4 grams of chloroform by magnetic stirring for 10 minutes. The slurry was then filtered by gravity through filter paper. The filtrate was employed to rinse the beaker to remove all solids and the rinse added to the filter cake. The filtrate was then evaporated in a tared beaker and a residue of 0.01 grams obtained (which was within experimental error). From this experiment, it can be concluded that urea was insoluble in chloroform.
# 10.21 grams of Example 7, Table 1 organosilane quaternary clathrate was slurried as above in 75 grams of chloroform for 10 minutes and the slurry filtered as above and the filtrate evaporated to dryness. A waxy residue of 0.07 grams remained in the beaker.
# It can be concluded that this residue was not the organosilane quaternary. The solids that were filtered were dried to constant weight. 10.24 grams were recovered. 10.21 grams of the clathrate had been added. The difference of +0.03 grams was within experimental error. It can be concluded that the clathrate was not soluble in chloroform and that the organosilane quaternary was not extracted from the clathrate by the chloroform.
residue of evaporated chloroform filtrate [2] [grams],solubility in chloroform [2],SMILES,appearance of solution [1]
,,"CCCCCCCCCCCCCCCCCC[N+](C)(C)CCC[Si](OC)(OC)OC.[Cl-] [Example 7, 3-(trimethoxysilyl)propyldimethyloctadecyl ammonium chloride]",clear
0.01,insoluble,NC(N)=O [urea],
